Source: US11291660B2, “Method of treating heart failure with preserved ejection fraction by administering milrinone” (Baker Heart and Diabetes Institute, priority 2014, dated 2022)

Columns and labels:
HFpEF patients [1] = details: cited from earlier work
HFpEF patients [2] = details: cited from earlier work; remark: listed apart in the source
HFpEF = details: in vivo; cited from earlier work
HFpEF patients [3] = details: cited from earlier work; remark: listed apart in the source
[4] = Saturated solubility of Milrinone in different buffers; type: physicochemical; details: pH 1.2 to 7.4 buffers
Protocol: Aim: To perform the saturated solubility of Milrinone in different buffers.
1. pH 1.2—Hydrochloric Acid Buffer
3. pH 6.8—Phosphate Buffer
4. pH 7.4—Phosphate Buffer.
• 1. 2 mL buffer solution is placed into a 8 mL USP Type I clear glass vial (with screw cap and PTFE septa) • 2. 10 mg of Milrinone is added in each vial and the vial is shaken to dissolve the compound. • 3. The addition of Milrinone is continued till the formation of saturated solution. • 4. The pH of the saturated solution is measured after the addition of Milrinone. • 5. If there is any difference in pH more than 0.1 units is observed when compared to the initial pH, the pH was adjusted with acid or base respectively to bring it to the initial pH. • 6. The vials are closed with screw cap and kept for mixing using rotary tube shaker for 24 h. Note: The vials are observed at frequent intervals and if the solution is clear, further amount of Milrinone is added to make a saturated solution.

COc1ccccc1OCC(O)CN1CCN(CC(=O)Nc2c(C)cccc2C)CC1 (stereo not drawn) [Ranolazine]
Echocardiographic parameters or exercise performance (HFpEF patients [1]): did not result in a change

CCCc1nn(C)c2c(=O)[nH]c(-c3cc(S(=O)(=O)N4CCN(C)CC4)ccc3OCC)nc12 [sildenafil]
Exercise capacity or clinical status (HFpEF patients [2]): did not result in improvement

C[C@H]1O[C@@H](O[C@H]2[C@@H](O)C[C@H](O[C@H]3[C@@H](O)C[C@H](O[C@H]4CC[C@@]5(C)[C@H](CC[C@@H]6[C@@H]5C[C@@H](O)[C@]5(C)[C@@H](C7=CC(=O)OC7)CC[C@]65O)C4)O[C@@H]3C)O[C@@H]2C)C[C@H](O)[C@@H]1O [digoxin]
Benefit as therapy for HFpEF (HFpEF): little or no conclusive benefit

CC(=O)S[C@@H]1CC2=CC(=O)CC[C@]2(C)[C@H]2CC[C@@]3(C)[C@@H](CC[C@@]34CCC(=O)O4)[C@H]12 [spironolactone]
Left ventricular diastolic function (HFpEF patients [3]): improved left ventricular diastolic function
Maximal exercise capacity, patient symptoms or quality of life (HFpEF patients [3]): did not affect

Cc1[nH]c(=O)c(C#N)cc1-c1ccncc1 [Milrinone, 1,2-dihydro-3-cyano-6-methyl-5-(4-pyridinyl)-2(1H)-pyridinone]
Solubility as a function of pH (in words) [4]: highly soluble in acidic pH
